Data from the OPERA property sets (Mansouri et al. 2018).
Peptide text beside a SMILES is read from it.

Row | Compound | logP
1 | O=C(NC(CO)C(O)c1ccc([N+](=O)[O-])cc1)C(F)(F)F (stereo unspecified) | 1.07
2 | CCCCC(=O)OCC(=O)C1(O)CCC2C3CCC4=CC(=O)CCC4(C)C3C(O)CC21C (stereo unspecified) | 3.62
3 | CN1CC[C@]23c4c5ccc(O)c4O[C@H]2C(=O)CC[C@@]3(O)[C@H]1C5 | 0.83
4 | S=C1CCCCCCN1 | 1
5 | Nc1cccc(N)c1 | -0.33
6 | CC(C)(C)NC[C@H](O)COc1ccccc1C1CCCC1 | 4.15
7 | CON(C)C(=O)Nc1ccc2c(c1)Cc1ccccc1-2 | 3.67
8 | NC(=O)COc1ccccc1 | 0.76
9 | c1ccc(Cc2ccccc2)cc1 | 4.14
10 | OCCN1CCN(C2CC(c3ccc(F)cc3)c3ccc(C(F)(F)F)cc32)CC1 (stereo unspecified) | 4.39
11 | CCNCCc1cccnc1 | 0.54
12 | c1ccc2nc3ccccc3cc2c1 | 3.4
13 | O=[N+]([O-])c1ccc2oncc2c1 | 1.46
14 | CN(C)CCN(C)S(=O)(=O)c1ccc(C(C)(C)[N+](=O)[O-])c([N+](=O)[O-])c1 | 1.42
15 | c1ccc2cc3ccccc3cc2c1 | 4.45
16 | CC1CC2C3CCC4=CC(=O)C=CC4(C)C3(F)C(=O)CC2(C)C1(O)C(=O)CCl (stereo unspecified) | 2.61
17 | CC(=O)N[C@@H](C)C(=O)N[C@@H](Cc1ccc(O)cc1)C(=O)N[C@@H](CC(C)C)C(N)=O (Ac-Ala-Tyr-Leu-NH2) | -0.04
18 | CCOC(=O)c1cccc([N+](=O)[O-])c1 | 2.35
19 | CCCCNc1ccccc1OC | 2.85
20 | CN(C)Cc1cccnc1 | 0.49
21 | Nc1c([N+](=O)[O-])cccc1[N+](=O)[O-] | 1.79

Row | Compound | logP
22 | O=C1C=C(N2CC2)C(=O)C(N2CC2)=C1N1CC1 | -0.13
23 | COP(=O)(OC)OC(Br)C(Cl)(Cl)Br (stereo unspecified) | 1.38
24 | O=C(O)COc1ccc(C2CCCCC2)cc1 | 3.79
25 | NS(=O)(=O)c1ccc(C(=O)c2ccncc2)cc1 | 0.56
26 | CC(C)C(C)C | 3.42
27 | OCCCCc1ccccn1 | 0.86
28 | O=C1CN=C(c2ccccc2)c2cc([N+](=O)[O-])ccc2N1 | 2.25
29 | CCn1cc(C)c(=O)[nH]c1=O | -0.15
30 | CN(C)N=Nc1cccc(C(F)(F)F)c1 | 3.78
31 | c1ccc(CN2CCOCC2)cc1 | 1.58
32 | CC(=O)OCc1ccc(Cl)cc1 | 2.59
33 | CCCCOCN(C(=O)CCl)c1c(CC)cccc1CC | 4.5
34 | O=C(c1ccccc1)c1ccccn1 | 1.88
35 | O=C(O)CSc1ccccc1 | 1.88
36 | CNC(=O)c1ccoc1 | 0.34
37 | CC(C)c1cnc(NS(=O)(=O)c2ccc(N)cc2)nc1 | 1.23
38 | CC(C)OC(=O)Nc1ccccc1 | 2.6
39 | COC(N)=O | -0.66
40 | C1COCCOCCOCCOCCO1 | -0.48
41 | C#CCn1cncc1[N+](=O)[O-] | 0.52
42 | NC(Cc1ccc(F)cc1)C(=O)O (racemic) | -1.89

Row | Compound | logP
43 | CN1C(=O)SC(=Cc2ccc([N+](=O)[O-])o2)C1=O | 1.78
44 | NC(N)=O | -2.11
45 | OCCCCc1cccnc1 | 0.92
46 | CC(C)NC(C)(C)C | 1.56
47 | O=C(O)c1cccc([N+](=O)[O-])c1C(=O)O | 0.75
48 | Cc1ccccc1OCC(=O)O | 1.98
49 | CCOC(=O)C(=Cc1c(Cl)cccc1Cl)C(C)=O | 2.86
50 | CC1CC2C3CC(F)C4=CC(=O)C(Cl)=CC4(C)C3(F)C(O)CC2(C)C1(O)C(=O)CO (stereo unspecified) | 2.58
51 | O=c1[nH]c(=O)n([C@H]2C[C@H](O)[C@@H](CO)O2)cc1Br | -0.29
52 | NC(=O)c1cccc(F)c1 | 0.91
53 | FC(F)(Cl)Cl | 2.16
54 | O=Cc1ccc([N+](=O)[O-])o1 | 1.01
55 | N#Cc1sc2c(=O)c3ccccc3c(=O)c=2sc1C#N | 2.84
56 | O=C(Nc1cccc2cccnc12)C(F)(F)F | 3.24
57 | C=CCC1(CC=C)C(=O)NC(=O)N(C)C1=O | 1.55
58 | Cc1ccc(C)c(C)c1 | 3.63
59 | Nc1ccc(C(=O)O)cc1O | 0.5
60 | CCCCOc1ccc([N+](=O)[O-])cc1 | 3.5
61 | Oc1cccc(C(F)(F)F)c1 | 2.95
